Data taken from US20260216180A1, “QUINOLINE DERIVATIVE COMPOUNDS OR PHARMACEUTICALLY ACCEPTABLE SALT THEREOF, PREPARATION METHOD THEREFOR AND USE THEREOF” (JIANGSU CAREPHAR PHARMACEUTICAL CO.,LTD., priority 2023, published 2026).
pIC50: −log10 of the molar value. Marks after values point to notes of the source that are not given here.

Tests used:
DSS colitis model = test: In vivo efficacy in 3% DSS colitis model in mice; parameters: species or system male C57BL/6 mice; details: for Colon length / Colon weight / Pathological score: D0-D11, DSS colitis mice; for Colon length / Colon weight: D11; for Pathological score: colon HE staining
Experimental: In this experiment, male C57BL/6 mice (from Jiangsu Jicui Pharmaceutical Biotechnology Co., Ltd.) were used to establish a colitis model by freely drinking 3% DSS water. After the adaptive feeding of mice, they were randomly divided into 4 groups according to their body weight: normal control group, DSS enteritis model group, compound 18-10 mg/kg group, and ABX464-40 mg/kg group. The day of grouping was recorded as DO. On D0-D8, mice in G2-G4 groups were given 3% DSS drinking water, which was changed every 3 days. On D9-D11, mice in G2-G4 groups were given normal drinking water. The corresponding solvents and drugs were intragastrically administered for 11 consecutive days from D0 to D11. From D0 to D11, mice in the G1 group received normal diet and water, and were given blank-vehicle for 11 consecutive days. The mice were observed daily from D0 to D11, their weights were recorded, diarrhea scores and bloody stool scores were measured daily, and the DAI values were calculated. On D11, mice were euthanized, colon tissue was obtained, colon length was measured, colon weight was weighed, and photos were taken. The colon tissues were subjected to HE staining and pathological analysis. Statistical analysis: Independent sample T test was used. #: P<0.05 compared with the normal control group; ##: P<0.01 compared with the normal control group; ###: P<0.001 compared with the normal control group. *: P<0.05 compared with the model control group; **: P<0.01 compared with the model control group; ***: P<0.001 compared with the model control group.

CYP2B6 = molecular target: T1, CYP2B6 (Homo sapiens, UniProt P20813); test: CYP enzyme inhibition, human liver microsomes, CYP2B6; assay type: in vitro ADME; details: probe substrate Bupropion, read-out: IC50 CYP 2B6
T1 construct: Commercially available mixed human liver microsomes were used; from tissue; host or cells: pooled human liver microsomes
T1 sequence (P20813 1-491): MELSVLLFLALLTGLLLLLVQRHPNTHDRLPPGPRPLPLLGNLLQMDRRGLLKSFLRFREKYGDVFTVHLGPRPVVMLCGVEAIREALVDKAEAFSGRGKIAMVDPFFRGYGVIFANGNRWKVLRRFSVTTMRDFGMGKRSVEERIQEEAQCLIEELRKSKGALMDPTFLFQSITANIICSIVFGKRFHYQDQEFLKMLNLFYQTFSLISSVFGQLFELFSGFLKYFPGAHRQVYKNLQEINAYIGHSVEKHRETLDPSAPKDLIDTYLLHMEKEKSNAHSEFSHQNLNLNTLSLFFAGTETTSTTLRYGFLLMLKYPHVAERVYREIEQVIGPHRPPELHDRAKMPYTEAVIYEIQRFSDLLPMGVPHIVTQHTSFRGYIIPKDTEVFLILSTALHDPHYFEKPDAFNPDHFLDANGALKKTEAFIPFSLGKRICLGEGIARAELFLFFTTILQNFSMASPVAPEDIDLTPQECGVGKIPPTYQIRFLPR
Experimental: (§1) Commercially available mixed human liver microsomes were used, with the liver microsome concentrations of diclofenac, dextromethorphan, and midazolam being 0.1 mg/mL; and the liver microsome concentrations of phenacetin, bupropion, amodiaquine, mephenytoin, and testosterone being 0.2 mg/mL. Probe substrate, specific inhibitor and test compound (ABX464, compound 18) were diluted to the corresponding concentration of working solution for use. A mixed solution containing liver microsomes, MgCl2, substrate, […] inhibitor, and the test compound was prepared. After the incubation, 600 μL of ice-cold ACN working solution containing IS was added to terminate the reaction, and the mixture was centrifuged and used for LC-MS/MS detection. [table] At different concentrations of the test compound or positive inhibitor, the percentage of remaining activity is determined by the ratio of the amount of characteristic metabolites of the probe substrate generated to the corresponding amount generated in the absence of the test compound or positive inhibitor. […]

CYP2D6 = molecular target: T2, CYP2D6 (Homo sapiens, UniProt P10635); test: CYP enzyme inhibition, human liver microsomes, CYP2D6; assay type: in vitro ADME; details: probe substrate Dextromethorphan, read-out: IC50 CYP 2D6
T2 construct: Commercially available mixed human liver microsomes were used; from tissue; host or cells: pooled human liver microsomes
T2 sequence (P10635 whole entry): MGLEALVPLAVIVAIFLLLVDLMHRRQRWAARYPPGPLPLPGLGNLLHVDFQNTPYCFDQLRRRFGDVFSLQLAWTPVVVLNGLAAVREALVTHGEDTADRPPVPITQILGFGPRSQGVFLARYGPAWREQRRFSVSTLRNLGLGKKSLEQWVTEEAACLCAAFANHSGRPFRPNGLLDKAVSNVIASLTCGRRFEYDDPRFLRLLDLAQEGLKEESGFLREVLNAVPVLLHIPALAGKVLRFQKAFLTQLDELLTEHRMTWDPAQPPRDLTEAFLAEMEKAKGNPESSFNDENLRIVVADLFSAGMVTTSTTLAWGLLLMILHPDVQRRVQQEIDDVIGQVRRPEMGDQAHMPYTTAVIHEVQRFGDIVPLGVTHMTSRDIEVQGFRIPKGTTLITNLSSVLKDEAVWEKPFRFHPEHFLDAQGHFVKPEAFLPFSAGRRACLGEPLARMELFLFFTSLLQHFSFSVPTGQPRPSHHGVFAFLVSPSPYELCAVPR
Experimental: as §1

miR-124 = test: Regulation of miR-124 expression in a PBMC in vitro model (qPCR); assay type: cell-based; details: 5 μM test compound, 24 h, human PBMC stimulated with PHA-L and IL-2; miR-191 internal reference; read-out: Relative expression of miR-124, fold change compared with DMSO-treated cells
Experimental: Pharmacological Activity Test: Regulation of miR-124 Expression by the Quinoline Derivatives in a PBMC In Vitro Model
• a. human PBMC cells • b. PHA-L • c. IL-2 • d. mirVana™ miRNA Extraction kit • e. TaqMan Advanced miRNA cDNA Synthesis Kit • f. TaqMan Fast Gene Expression Master Mix • g. TaqMan Advanced miRNA Assay (mir191) • h. TaqMan Advanced miRNA Assay (mir124)
Human PBMC cells were resuscitated. The cell suspension was transferred to a 75 cm^2 culture flask containing 13 mL of culture medium. The cells were cultured overnight in a 37° C., 5% CO2 incubator. The cell suspension was then collected in a conical flask, centrifuged at 1200 rpm for 5 minutes, and the supernatant was discarded. The cells were resuspended in 1 mL of fresh culture medium, and then the cell clumps were gently blown apart and inoculated into a 6-well plate at a density of 4*10^6 cells/mL. 5 μg/mL PHA-L and 10 ng/mL IL-2 were added to each well. The cells were incubated in the incubator for 48 hours. 5 μM of the test compound was added to each well of a 6-well plate, and 0.1% DMSO was added to the blank control wells, and the plate was incubated at 37° C. for 24 h. Cells were collected, Total RNA was isolated and extracted according to the procedure of the mirVana™ miRNA Extraction Kit, and cDNA was prepared according to the procedure of the TaqMan Advanced miRNA cDNA Synthesis Kit. MiR-191 was used as the internal reference gene for qPCR test.
That is, RNA sample→poly (A) tailing reaction→adapter reaction→reverse transcription (RT) reaction→miR-amplification reaction→qPCR test.
The qPCR procedure includes: 50° C. 2 min; 95° C. 20 s; 95° C. 1 s, a 60° C. 20 s, 40 cycles.
The relative gene expression was calculated using the following formula: ΔCt=Ct (miR-124)−Ct (miR-191)
Relative miRNA expression=2^−ΔCt.

[1] = 10 mg/kg o.p. QD, listed as compound 18
[2] = 10 mg/kg o.p. QD, DSS colitis mice

pIC50 (CYP2B6) | pIC50 (CYP2D6) | Compound | DAI score compared with DSS enteritis model control group (DSS colitis model; 40 mg/kg o.p. QD, DSS colitis mice) | Colon length (DSS colitis model; 10 mg/kg o.p. QD) | Colon weight (DSS colitis model; 10 mg/kg o.p. QD) | Colon length (DSS colitis model; [1]) | Colon weight (DSS colitis model; [1]) | Pathological score (DSS colitis model; 10 mg/kg o.p. QD) | Pathological score (DSS colitis model; [1]) | Body weight of mice compared with DSS enteritis model control group (DSS colitis model; [2]) | DAI score compared with DSS enteritis model control group (DSS colitis model; [2]) | fold induction at 5 µM (miR-124)
4.06 | 4.76 | FC(F)(F)Oc1ccc(Nc2ccc3cccc(Cl)c3n2)cc1 [ABX464, reference compound] | significantly reduced | – | – | – | – | – | – | – | – | –
< 4.00 | 4.32 | Fc1cc(Cl)c2nc(Nc3ccc(C4(C(F)(F)F)CC4)cc3)ccc2c1 [Compound 18, 8-chloro-6-fluoro-N-(4-(1-(trifluoromethyl)cyclopropyl)phenyl)quinolin-2-amine] | – | 6.6*** cm | 0.3710** g | significantly increased | significantly increased | 4.00 | significantly reduced | significantly increased | significantly reduced | 125
